Where two headings read alike, the source gives them in different places.
Tested on: respiratory epithelial cells
Conditions: for expression level change, AQP5 (Probe ID 91275_at) / expression level change, ESTs AI758223 (Probe ID 76769_at) / expression level change, ESTs AI927079 (Probe ID 88716_at) / expression level change, MGC14128 (Probe ID 89360_at) / expression level change, PADI1 (Probe ID 81926_at) / expression level change, ST6GalNAcI (Probe ID 89741_at) / expression level change, CNTN1 (Probe ID 88239_i_at) / expression level change, DKFZP434I1735 (Probe ID 77516_r_at) / expression level change, FLJ10718 (Probe ID 69750_at) / expression level change, LGALS1 (Probe ID 80667_f_at) / expression level change, MGC14128 (Probe ID 86024_at): IL-13 stimulation
[1] = IL-13 vs no stimulation, lot 1 Day 3 AI
[2] = IL-13 vs no stimulation, lot 1 Day 3 IMM

## IL-13: human IL-13 (Peprotech, Inc.) added to the medium at 50 ng/mL to stimulate respiratory epithelial cells
HG-U95E, lot 2, Day 7
  SLC21A12 (87860_s_at) expression change upon IL-13 stimulation: 2.8
  rab11-FIP1 (89338_at) expression change upon IL-13 stimulation: 14.6
HG-U95E, lot 2, Day 7, AI
  AA199856 (72960_s_at) expression change upon IL-13 stimulation: 5.5
  AA806114 (80826_at) expression change upon IL-13 stimulation: 2
  AI803648 (89255_at) expression change upon IL-13 stimulation: 2.4
  AI859144, KIAA1127 (77546_at) expression change upon IL-13 stimulation: 9.8
  AI984061 (89834_at) expression change upon IL-13 stimulation: 3.1
  AW024819 (72867_at) expression change upon IL-13 stimulation: 2.3
  BAL (69619_at) expression change upon IL-13 stimulation: 2.4
  BCAT1 (72962_at) expression change upon IL-13 stimulation: 3.7
  CLDN1 (77660_at) expression change upon IL-13 stimulation: 5.4
  EHF (8S090_at) expression change upon IL-13 stimulation: 3
  EHF (85092_g_at) expression change upon IL-13 stimulation: 7
  EPPK1 (86507_at) expression change upon IL-13 stimulation: 3.2
  FLJ20281 (83376_at) expression change upon IL-13 stimulation: 2.6
  FLJ20989 (91420_at) expression change upon IL-13 stimulation: 2.1
  FLJ21415 (89902_at) expression change upon IL-13 stimulation: 2.7
  FLJ22833 (67329_at) expression change upon IL-13 stimulation: 4.2
  GCNT3 (77751_at) expression change upon IL-13 stimulation: 2
  KIAA1685 (83541_at) expression change upon IL-13 stimulation: 2
  MASL1 (89651_at) expression change upon IL-13 stimulation: 4.2
  MFHAS1 (87816_g_at) expression change upon IL-13 stimulation: 2.7
  RIG-1 (77749_at) expression change upon IL-13 stimulation: 2.3
  SCYA26 (90189_at) expression change upon IL-13 stimulation: 29.8
Lot 1, Day 3, AI
  expression level change, AQP5 (Probe ID 91275_at): −7.7
  expression level change, ESTs AI758223 (Probe ID 76769_at): −3.6
  expression level change, ESTs AI927079 (Probe ID 88716_at): −2.7
  expression level change, MGC14128 (Probe ID 89360_at): −2.1
  expression level change, PADI1 (Probe ID 81926_at): −6.1
  expression level change, ST6GalNAcI (Probe ID 89741_at): −2.5
Lot 1, Day 3, IMM
  expression level change, AQP5 (Probe ID 91275_at): −3.8
  expression level change, ESTs AI758223 (Probe ID 76769_at): −2.1
  expression level change, MGC14128 (Probe ID 89360_at): −2.6
Lot 1, Day 7, AI
  expression level change, AQP5 (Probe ID 91275_at): −3.7
  expression level change, CNTN1 (Probe ID 88239_i_at): −2
  expression level change, DKFZP434I1735 (Probe ID 77516_r_at): −2
  expression level change, ESTs AI758223 (Probe ID 76769_at): −14.8
  expression level change, ESTs AI927079 (Probe ID 88716_at): −12.9
  expression level change, FLJ10718 (Probe ID 69750_at): −3
  expression level change, LGALS1 (Probe ID 80667_f_at): −7.2
  expression level change, MGC14128 (Probe ID 86024_at): −4
  expression level change, MGC14128 (Probe ID 89360_at): −3.8
  expression level change, PADI1 (Probe ID 81926_at): −6.1
  expression level change, ST6GalNAcI (Probe ID 89741_at): −2.4
Lot 1, Day 7, IMM
  expression level change, CNTN1 (Probe ID 88239_i_at): −2.7
  expression level change, ESTs AI758223 (Probe ID 76769_at): −15.7
  expression level change, ESTs AI927079 (Probe ID 88716_at): −10.7
  expression level change, FLJ10718 (Probe ID 69750_at): −4.7
  expression level change, LGALS1 (Probe ID 80667_f_at): −5.2
  expression level change, MGC14128 (Probe ID 86024_at): −2.9
  expression level change, MGC14128 (Probe ID 89360_at): −2.9
  expression level change, PADI1 (Probe ID 81926_at): −7.6
  expression level change, ST6GalNAcI (Probe ID 89741_at): −4.3
Lot 2, Day 3, AI
  expression level change, AQP5 (Probe ID 91275_at): −14.3
  expression level change, CNTN1 (Probe ID 88239_i_at): −3.8
  expression level change, ESTs AI758223 (Probe ID 76769_at): −9.6
  expression level change, ESTs AI927079 (Probe ID 88716_at): −7
  expression level change, LGALS1 (Probe ID 80667_f_at): −2.5
  expression level change, MGC14128 (Probe ID 86024_at): −2.4
  expression level change, PADI1 (Probe ID 81926_at): −6.7
  expression level change, ST6GalNAcI (Probe ID 89741_at): −8.8
Lot 2, Day 7, AI
  expression level change, AQP5 (Probe ID 91275_at): −7.7
  expression level change, CNTN1 (Probe ID 88239_i_at): −3.3
  expression level change, DKFZP434I1735 (Probe ID 77516_r_at): −2.7
  expression level change, ESTs AI927079 (Probe ID 88716_at): −18.5
  expression level change, FLJ10718 (Probe ID 69750_at): −3.6
  expression level change, LGALS1 (Probe ID 80667_f_at): −8.2
  expression level change, MGC14128 (Probe ID 86024_at): −2.8
  expression level change, MGC14128 (Probe ID 89360_at): −4
  expression level change, PADI1 (Probe ID 81926_at): −6.8
  expression level change, ST6GalNAcI (Probe ID 89741_at): −8.4
[1]
  AKR1B10 (37482_at) expression change: −6.5
  AKR1C3 (37399_at) expression change: −3.3
  AREG (34898_at) expression change: −2.3
  BDKRB2 (39310_at) expression change: −2.1
  BENE (33331_at) expression change: −3.7
  CTSL2 (40717_at) expression change: −2.8
  DUSP1 (1005_at) expression change: −2.8
  GABRE (34280_at) expression change: −2
  GPNMB (38379_at) expression change: −3.3
  IGFBP3 (1586_at) expression change: −2.4
  IGFBP3 (37319_at) expression change: −2.7
  IGFBP6 (1736_at) expression change: −3.6
  IMPA2 (36496_at) expression change: −2.8
  LOH11CR2A (38151_at) expression change: −2.1
  MMP9 (31859_at) expression change: −25.5
  MMP10 (1006_at) expression change: −6.3
  MSMB (32149_at) expression change: −8.6
  NDRG1 (36933_at) expression change: −4.9
  NOTCH3 (38750_at) expression change: −2.9
  PFTK1 (36502_at) expression change: −3.9
  PSCA (33792_at) expression change: −6
  RARRES1 (1042_at) expression change: −3.1
  RARRES1 (33505_at) expression change: −2.2
  RDC1 (34288_at) expression change: −4.1
  S100A8 (41096_at) expression change: −5.4
  SEC14L2 (32817_at) expression change: −2.1
  SERPINB5 (862_at) expression change: −2.2
  SERPINE1 (672_at) expression change: −12
  SERPINE1 (38125_at) expression change: −6.9
  STK39 (39120_at) expression change: −3.9
  c-fos (1915_s_at) expression change: −2
  c-fos (1916_s_at) expression change: −2.2
[2]
  AKR1B10 (37482_at) expression change: −2.8
  APM2 (32527_at) expression change: −2.1
  AREG (34898_at) expression change: −4.2

Reference: US20050208496A1, “Methods of testing for bronchial asthma or chronic obstructive pulmonary disease” (Genox Research, Inc., priority 2002, published 2005)
